Results: article PMC5526551, “New hydrazonoindolin-2-ones: Synthesis, exploration of the possible anti-proliferative mechanism of action and encapsulation into PLGA microspheres” (PLoS ONE, 2017)

Experiment: In vitro 7e release (vial method, phosphate buffer pH 7.4)
Format: physicochemical
Details: after 5 days, pH 7.4, 37°C
Experimental: In vitro7e-release: Studies on the in vitro release of 7e from microspheres were carried out using the vial method as reported by Dubey et al.. Compound 7e-PLGA-microspheres containing 5 mg equivalent of compound 7e were suspended in a vial containing phosphate buffer (10 mL, pH 7.4) with 0.3% Tween 80 to improve the solubility of 7e. The vial was incubated in a water bath at 37 ± 0.5°C and vibrated horizontally at speed of 100 rpm. In vitro 7e release was assessed by intermittently sampling the vial (2 mL) at predetermined time intervals (1, 2, 3, 4, 5, 6, 10, 12, 15, 18, 20 and 21 days), then replacing the volume with 2 mL of fresh phosphate buffer.
In vitro 7e release was assessed in phosphate buffer (pH 7.4) containing a surfactant to simulate the physiological milieu and maintain sink conditions. Samples were incubated at 37°C, and the amount of 7e was determined using a UV spectrophotometer. […] On the other hand, the release of compound 7e from the raw powder was faster than its release from the microspheres, as 65% of 7e was released after 5 days. This uncontrolled burst release of compound 7e from raw powder could result in too high local concentration which could lead to severe local tissue injure and hamper appropriate delivery to the target.

For `O=C1Nc2ccc(Br)cc2C1=NN=C1C(=O)N(Cc2ccccc2)c2ccccc21` [Compound 7e, 1-Benzyl-3-((5-bromo-2-oxoindolin-3-ylidene)hydrazono)indolin-2-one], the “Cumulative in vitro release of 7e” value was 65%.
